Where a SMILES comes first, the peptide text is derived from it. The star is where a group is joined. Cbz = O=C(OCc1ccccc1)*
Key:
[1] = system: 30-kDa active form of cathepsin B (CatB-30); experiment: Hippocampal slice cultures treated for two days, immunoblot for active cathepsin B; assay type: cell-based, rodent; settings: for levels of cathepsin B (summary in words) / effect of the cathepsin B positive modulator PADK in combination with flavonol (summary in words): summary in the discussion; for increase in CatB-30 by flavonol alone: 5 μM flavonol alone for 2 days; for increase in cathepsin B (CatB-30): vs non-treated slices, statistically significant
Protocol: FIG. 1. Cathepsin B positive modulation by flavonols—members of the flavonoid class of polyphenolic compounds. Flavonols of quercetin (Q), fisetin (F), and myricetin (M) were applied daily to rodent hippocampal slice cultures. After two (2) days, non-treated (NT) and treated slices were harvested, homogenates were prepared, and equal protein aliquots were assessed by immunoblot to label the 30-kDa active form of cathepsin B (CatB-30). […] FIG. 2. Cathepsin B positive modulation by Z-Phe-Pro-OH. The compound Z-Phe-Pro-OH was applied to rodent hippocampal slice cultures for two (2) days. […] FIG. 3. Quercetin enhances the effect of the cathepsin B positive modulator Z-Phe-Ala-diazomethylketone (PADK). Quercetin (Q) at 5 μM was added to the daily PADK treatments of rodent hippocampal slice cultures. After two (2) days, non-treated (NT) and treated slices were harvested, homogenates were prepared, and equal protein aliquots were assessed by immunoblot to label the active form of cathepsin B (CatB-30). Paired, two-tailed t-test among distinct immunoblots found a statistically significant enhancement of the PADK effect by quercetin (p=0.0167; pairing was effective: p=0.0014). An enhancement of 60-70% occurred, whereas 5 μM quercetin alone for 2 days caused only a 21% increase in CatB-30. FIG. 4. Fisetin and myricetin enhance the cathepsin B positive modulation produced by 10 μM Z-Phe-Ala-diazomethylketone (PADK). Fisetin at 5 μM (top graph) or myricetin at 5 μM (bottom graph) were added to the two daily PADK treatments of rodent hippocampal slice cultures. The non-treated (NT) and treated slices were harvested, homogenates were prepared, and equal protein aliquots were assessed by immunoblot to label the active form of cathepsin B (CatB-30). […] An enhancement of 95-140% was produced by fisetin, whereas 5 μM fisetin alone for two (2) days caused only a 40% increase in CatB-30. FIG. 5. Dose-dependent enhancement of the PADK effect on CatB by flavonols. Quercetin (Q), fisetin (F), and myricetin (M) at 5-10 μM were applied daily to rodent hippocampal slice cultures that were also treated with 3 μM PADK (top graph) or 10 μM PADK (bottom graph). After two (2) days, non-treated (NT) and treated slices were harvested, homogenates were prepared, and equal protein aliquots were assessed by immunoblot to label the 30-kDa active form of cathepsin B (CatB-30). […] The 10 μM PADK slices indicate that each flavonol at the lower concentration has an enhancing effect, but the effect is eliminated or reduced when the flavonol concentration is doubled. As described in FIG. 1, flavonols such as quercetin (Q), fisetin (F), and myricetin (M) were applied daily to rodent hippocampal slice cultures. After two (2) days, non-treated (NT) and treated slices were harvested, homogenates were prepared, and equal protein aliquots were assessed by immunoblot to label the 30-kDa active form of cathepsin B (CatB-30). As described in FIG. 2, the compound of Z-Phe-Pro-OH was applied to rodent hippocampal slice cultures for two (2) days. As described in FIG. 3, the flavonol of quercetin (Q) was added at 5 μM to the daily PADK treatments of rodent hippocampal slice cultures. After two (2) days, non-treated (NT) and treated slices were harvested, homogenates were prepared, and equal protein aliquots were assessed by immunoblot to label the active form of cathepsin B (CatB-30). As described in FIG. 4, the flavonols of fisetin at 5 μM (top graph of FIG. 4) or myricetin at 5 μM (bottom graph of FIG. 4) were added to the two daily PADK treatments of rodent hippocampal slice cultures. The non-treated (NT) and treated slices were harvested, homogenates were prepared, and equal protein aliquots were assessed by immunoblot to label the active form of cathepsin B (CatB-30). As described in FIG. 5, the flavonols of quercetin (Q), fisetin (F), and myricetin (M) at 5-10 μM were applied daily to rodent hippocampal slice cultures that were also treated with 3 μM PADK (top graph) or 10 μM PADK (bottom graph). […]

synaptic marker GluR1 = experiment: Oral dosing in peanut butter pellets to middle-aged mice, dissected hippocampi: synaptic marker GluR1; assay type: in vivo; settings: oral twice daily for 11 days, hippocampus, vs control compound
Protocol: (§1) Compounds in peanut butter pellets were administered to middle-aged mice orally twice daily for 11 days, then dissected hippocampi were compared to control mice that received the same oral dosing with control compound.

CatB-30 = experiment: Oral dosing in peanut butter pellets to middle-aged mice, dissected hippocampi: CatB-30; assay type: in vivo; settings: oral twice daily for 11 days, hippocampus, vs control compound
Protocol: as §1

[2] = flavonol at 5 and 10 μM daily with 3 μM PADK, two days

Structure (SMILES) | levels of cathepsin B (summary in words) [1] | enhancement of the PADK effect on CatB-30 ([1]; 5 μM fisetin added to two daily treatments with 10 μM PADK) | increase in CatB-30 by flavonol alone [1] | increase in cathepsin B (CatB-30) ([1]; 5-30 μM fisetin applied daily, two days) | enhancement of the PADK effect on CatB-30 (in words) [1, 2] | effect of the cathepsin B positive modulator PADK in combination with flavonol (summary in words) [1] | enhancement of the PADK effect on CatB-30 (in words) ([1]; 5 μM myricetin added to two daily treatments with 10 μM PADK, one-tailed p=0.033) | synaptic marker GluR1 (synaptic marker GluR1) | CatB-30 in female mice (CatB-30; female middle-aged mice) | CatB-30 in male mice (CatB-30; male middle-aged mice) | enhancement of the PADK effect on CatB-30 ([1]; 5 μM quercetin added to the daily PADK treatments, two days) | increase in cathepsin B (CatB-30) ([1]; 5-20 μM quercetin applied daily, two days)
O=C(N[C@@H](Cc1ccccc1)C(=O)N1CCC[C@H]1C(=O)O)OCc1ccccc1 [Z-Phe-Pro-OH, N-carbobenzoxy-L-phenylalanyl-L-proline] (Cbz-Phe-Pro-OH) | increase levels of cathepsin B | – | – | – | – | – | – | – | – | – | – | –
O=c1c(O)c(-c2ccc(O)c(O)c2)oc2cc(O)ccc12 [fisetin] | increase levels of cathepsin B | 95-140% | 40% | 1.65 fold | only the higher 10 μM concentration of fisetin enhanced the effect | enhance the effect | – | – | – | – | – | –
O=c1c(O)c(-c2cc(O)c(O)c(O)c2)oc2cc(O)cc(O)c12 [myricetin] | increase levels of cathepsin B | – | – | – | no enhancing effect at either concentration | enhance the effect | smaller enhancement | – | – | – | – | –
O=c1c(O)c(-c2ccc(O)c(O)c2)oc2cc(O)cc(O)c12 [quercetin] | increase levels of cathepsin B | – | 21% | – | both 5 and 10 μM quercetin enhanced the PADK effect | enhance the effect | – | enhanced synaptic marker GluR1 | increased CatB-30 in female mice | increased CatB-30 in male mice | 60-70% | 1.96 fold

— patent publication US10702571B2, “Materials for cathepsin B enhancement and methods of use” (The University of North Carolina at Pembroke, priority 2015, dated 2020)
